The subject of the assay is 4T-1-HER2 mammary tumors. The experiment in a line: 4T1-HER2 mammary tumors in syngeneic female BALB/c mice treated with anti-HER2 CAR-T, BQ-788-B and anti-PD1. The format is in vivo. The text has this: Lentivirus for expression of an anti-HER2 CAR was produced by co-transfecting 293T-17 cells with lentiviral vector pLVX-EF1α-CAR-IRES-ZsGreen1 together with the packaging plasmids pSPAX2 and pMD2.G. Splenocytes from 6-week old female BALB/c mice were isolated by density-gradient centrifugation using a lymphocyte separation medium, Histopaque, activated in 24-well plates at a density of 1×10^6 cell/ml using a mouse T Cell Activation/Expansion Kit for 2-3 days, and then transduced with pLVX-EF1α-CAR-IRES-ZsGreen1 lentivirus at the multiplicity of infection of 20 in the presence of 8 µg/mL polybrene by centrifugation at 1,500×g for 2 hours at 32° C. GFP+ transduced T cells were analyzed by flow cytometry to evaluate the lentiviral transduction efficiency.
4T1-HER2 cells (4×10^6), were resuspended in 0.1 mL PBS and mixed with 0.1 mL Matrigel and injected subcutaneously into the right back region of BALB/c female mice (6-week-old, weighed 17-20 g). Tumor growth was monitored by caliper measurement every three days.
About 14 days after 4T-1-HER2 cell injection, when the tumor diameter reaches about 6 mm in diameter, mice were randomized into eight groups for treatments (6 mice per group).
Blank T or CAR-T cells (1×10^7 cells/mice) were injected intravenously into each mouse on day 11 and day 18 post-tumor inoculation. BQ-788-B ([…]) or PBS was administered via subcutaneous injection into each mouse, starting on day 10, every two or three days for a total of 9 injections. All mice were injected intraperitoneally with 20,000 IU IL-2 once every 2 days from day 14 to […] (Note: day 0 is defined as when 4T1-HER2 cells are injected into mice). Anti-PD1 or isotype control Ig (230 ug/mouse) was injected IP every 4 days, starting on day 11 post tumor inoculation (4 injections total). The eight treatment groups are listed below: • 1) Blank T+PBS+isotype • 2) CAR-T+PBS+isotype • 3) BQ-788-B+Blank T+isotype • 4) Blank T+PBS+anti-PD1 • 5) BQ-788-B+CAR-T+ isotype • 6) CAR-T+PBS+anti-PD1 • 7) BQ-788-B+Blank T+anti-PD1 • 8) BQ-788-B+CAR-T+ anti-PD1
Tumor growth was monitored by caliper measurement every three days. On the 30th day after 4T1-HER2 cell injection, all mice were euthanized by asphyxiation with CO2 followed by cervical dislocation. All tumors were dissected out and photographed before fixation in 10% formalin.

The structures appear in SMILES notation.

With `[2H]C[C@@H]1CCC[C@H](C[2H])N1C(=O)N[C@@H](CC(C)(C)C)C(=O)N[C@H](Cc1cn(C(=O)OC)c2ccccc12)C(=O)N[C@H](CCCC)C(=O)O` [BQ-788-B], the “tumor volumes at day 29” value (BQ-788-B in combination with anti-PD1 and/or CAR-T therapy, compared to control, CAR-T alone, or PD-1 alone, FIG. 4) is recorded as “significantly reduced tumor volumes”. In addition, the “tumor weights at day 30” value (BQ-788-B in combination with anti-PD1 and/or CAR-T therapy, compared to control, CAR-T alone, or PD-1 alone, FIGS. 5A and 5B) was “significantly reduced tumor weights”. Moreover, the “anti-tumor efficacy of CAR-T cells, of anti-PD-1 antibody therapy and of their combinations” value (addition of BQ-788-B) is recorded as “significantly enhances the anti-tumor efficacy”. The “tumor suppression at later time points” value (addition of BQ-788-B in mice treated with either anti-PD1 or CAR-T therapy) is listed as “enhanced tumor suppression”.

The values are drawn from patent publication US20260130999A1, “METHODS FOR TREATING CANCERS ASSOCIATED WITH ETBR ACTIVATION” (ENB Therapeutics, Inc., priority 2022, published 2026).
